From patent US10703746B2, “Mutant IDH1 inhibitors useful for treating cancer” (THE UNITED STATES OF AMERICA, AS REPRESENTED BY THE …, priority 2014, dated 2020)

Columns and labels:
IDH1 R132C = IDH1 R132C (Homo sapiens, UniProt O75874, R132C); assay: IDH1 R132C enzymatic assay (NADPH depletion coupled to diaphorase/resazurin); format: biochemical
Method in brief: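 NADPH depletion, read via diaphorase/resazurin coupling, after adding substrate at 0.6 mM α-KG and 0.012 mM NADPH. Beforehand, 0.00032 mg/mL enzyme sat with compound 30 min at room temperature in pH 6.5 potassium phosphate buffer with MgCl2, glycerol and BSA.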

IDH1 R132H = IDH1 R132H (Homo sapiens, UniProt O75874, R132H); assay: IDH1 R132H enzymatic assay (NADPH depletion coupled to diaphorase/resazurin); format: biochemical
[1] = IDH1 R132C enzymatic inhibition, IC50 class
[2] = IDH1 R132H enzymatic inhibition, IC50 class
[3] = enzymatic inhibition, IDH1 R132C
[4] = enzymatic inhibition, IDH1 R132H

IDH1 R132H, sequence (O75874 whole entry R132H): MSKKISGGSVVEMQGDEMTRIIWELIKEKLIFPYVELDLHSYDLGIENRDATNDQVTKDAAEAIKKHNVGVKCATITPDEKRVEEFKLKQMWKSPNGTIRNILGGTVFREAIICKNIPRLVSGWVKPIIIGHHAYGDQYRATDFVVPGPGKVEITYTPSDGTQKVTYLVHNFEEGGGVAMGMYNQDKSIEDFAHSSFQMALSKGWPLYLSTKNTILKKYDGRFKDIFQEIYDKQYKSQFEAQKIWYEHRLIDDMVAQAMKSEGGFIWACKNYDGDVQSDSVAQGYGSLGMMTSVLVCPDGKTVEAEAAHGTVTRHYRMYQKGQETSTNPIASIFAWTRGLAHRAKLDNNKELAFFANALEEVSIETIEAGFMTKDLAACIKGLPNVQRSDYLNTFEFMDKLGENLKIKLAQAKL
IDH1 R132C, sequence (O75874 whole entry R132C): as the sequence (O75874 whole entry R132H) above, with H132C counted along it

For CCc1cccc(CC)c1-n1c(CC(C)C)c(C(=O)NCC(O)c2ccccc2)cc(-c2nc(-c3ccc(Cl)cc3)cs2)c1=O (stereo not drawn) [Compound 232], the IC50 (IDH1 R132C; [1]) was under 0.3 µM and the IC50 (IDH1 R132H; [2]) was 0.3 to 1 µM.

For Cc1ccc(CN2CCN(C)CC2)cc1-n1c2c(cc(-c3nc(-c4ccc(Cl)cc4)cs3)c1=O)C(=O)CCC2 [Compound 563], the IC50 (IDH1 R132C; [3]) was over 20 µM and the IC50 (IDH1 R132H; [4]) was over 20 µM.

With CCc1cccc(CC)c1-n1c2c(cc(-c3nc(-c4cccc(C)c4)cs3)c1=O)C(=O)CC(C)(C)C2 [Compound 240] the IC50 (IDH1 R132C; [1]) was 1 to 5 µM and the IC50 (IDH1 R132H; [2]) was 5 to 20 µM.

In the case of CCc1cccc(CC)c1-n1c(CC(C)C)c(C(=O)N2CCNCC2)cc(-c2nc(-c3ccc(Cl)cc3)c(C(=O)OC)s2)c1=O [Compound 387], the IC50 (IDH1 R132C; [1]) is reported as under 0.3 µM and the IC50 (IDH1 R132H; [2]) is reported as under 0.3 µM.

CCc1ncc(OC)cc1-n1c(C=C(C)C)c(C(=O)N2CCNCC2)cc(-c2nc(-c3ccc(C(F)(F)F)cc3)cs2)c1=O [Compound 636] showed an IC50 (IDH1 R132C; [1]) of under 0.3 µM and an IC50 (IDH1 R132H; [2]) of under 0.3 µM.

CC1(C)CC(=O)c2cc(-c3nc(-c4ccc(Cl)cc4)cs3)c(=O)n(-c3cscc3C(N)=O)c2C1 [Compound 429] was tested, and the IC50 (IDH1 R132C; [3]) was 5 to 20 µM and the IC50 (IDH1 R132H; [4]) was 5 to 20 µM.

CCc1cccc(CC)c1-n1c(CC(C)C)c(C(=O)N2CCNCC2)cc(-c2nc(-c3ccc(C(F)F)cc3)c(C)s2)c1=O [Compound 517] was tested, and the IC50 (IDH1 R132C; [3]) was under 0.3 µM and the IC50 (IDH1 R132H; [4]) was under 0.3 µM.

With Cc1noc(C)c1-n1c2c(cc(-c3nc(-c4ccc(Cl)cc4)cs3)c1=O)C(=O)CC(C)(C)C2 [Compound 13] the IC50 (IDH1 R132C; [1]) was 1 to 5 µM and the IC50 (IDH1 R132H; [2]) was over 20 µM.

Work on CCc1cccc(CC)c1-n1c(C=C(C)C)c(C(=O)N2CCNC(C#N)C2)cc(-c2nc(-c3ccc(Cl)cc3)cs2)c1=O (stereo not drawn) [Compound 657] yielded an IC50 (IDH1 R132C; [1]) of under 0.3 µM and an IC50 (IDH1 R132H; [2]) of under 0.3 µM.

CCc1cccc(CC)c1-n1c(C)c(C(=O)NC2CCNCC2)cc(-c2nc(-c3ccc(Cl)cc3)cs2)c1=O [Compound 302] showed an IC50 (IDH1 R132C; [1]) of 0.3 to 1 µM and an IC50 (IDH1 R132H; [2]) of 0.3 to 1 µM.

For COc1ccc(OC)c(-n2c(=O)c(-c3nc(-c4ccc(Cl)cc4)cs3)cc3c(OC)nccc32)c1 [Compound 97], the IC50 (IDH1 R132C; [1]) was 1 to 5 µM and the IC50 (IDH1 R132H; [2]) was 5 to 20 µM.

With CCc1cccc(CC)c1-n1c(C)c(C(=O)NCCNC)cc(-c2nc(-c3ccc(Cl)cc3)cs2)c1=O [Compound 15] the IC50 (IDH1 R132C; [1]) was under 0.3 µM and the IC50 (IDH1 R132H; [2]) was 1 to 5 µM.

With CCc1cccc(CC)c1-n1c2c(cc(-c3nc(-c4ccc(O)cc4)cs3)c1=O)C(=O)CC(C)(C)C2 [Compound 281] the IC50 (IDH1 R132C; [1]) was 5 to 20 µM and the IC50 (IDH1 R132H; [2]) was 5 to 20 µM.

For CCOC(=O)c1ncsc1-n1c2c(cc(-c3nc(-c4ccc(Cl)cc4)cs3)c1=O)C(=O)CC(C)(C)C2 [Compound 561], the IC50 (IDH1 R132C; [3]) was 1 to 5 µM and the IC50 (IDH1 R132H; [4]) was 1 to 5 µM.

With CCc1cccc(CC)c1-n1c2c(cc(-c3nc(-c4cccc(O)c4)cs3)c1=O)C(=O)CC(C)(C)C2 [Compound 249] the IC50 (IDH1 R132C; [1]) was 1 to 5 µM and the IC50 (IDH1 R132H; [2]) was 1 to 5 µM.

For CCc1cccc(CC)c1-n1c(C=C(C)C)c(C(=O)N2CCNC3(CC3)C2)cc(-c2nc(-c3ccc(C(F)(F)F)cc3)cs2)c1=O [Compound 324], the IC50 (IDH1 R132C; [1]) was under 0.3 µM and the IC50 (IDH1 R132H; [2]) was under 0.3 µM.

With CCOc1cccc(OCC)c1-n1c2c(cc(-c3nc(-c4ccc(Cl)cc4)cs3)c1=O)C(=O)CCC2 [Compound 444] the IC50 (IDH1 R132C; [3]) was 0.3 to 1 µM and the IC50 (IDH1 R132H; [4]) was 0.3 to 1 µM.

Molecule CCOc1ccc(C)cc1-n1c(C=C(C)C)c(C(=O)N2CCNCC2)cc(-c2nc(-c3ccc(Cl)cc3)cs2)c1=O [Compound 528] has an IC50 (IDH1 R132C; [3]) of under 0.3 µM and an IC50 (IDH1 R132H; [4]) of under 0.3 µM.

CCc1cccc(CC)c1-n1c(CC(C)C)c(C(=O)N2CCNC(C)C2C)cc(-c2nc(-c3ccc(Cl)cc3)cs2)c1=O (stereo not drawn) [Compound 107] showed an IC50 (IDH1 R132C; [1]) of under 0.3 µM and an IC50 (IDH1 R132H; [2]) of 0.3 to 1 µM.

Work on COc1cccc(CN2CCN(C)CC2)c1-n1c2c(cc(-c3nc(-c4ccc(Cl)cc4)cs3)c1=O)C(=O)CC(C)(C)C2 [Compound 319] yielded an IC50 (IDH1 R132C; [1]) of 5 to 20 µM and an IC50 (IDH1 R132H; [2]) of 5 to 20 µM.

Work on CCc1cccc(CC)c1-n1c(C)c(C(=O)N(C)CCO)cc(-c2nc(-c3ccc(Cl)cc3)cs2)c1=O [Compound 308] yielded an IC50 (IDH1 R132C; [1]) of 1 to 5 µM and an IC50 (IDH1 R132H; [2]) of 1 to 5 µM.

Molecule CCc1cccc(CC)c1-n1c(C)c(C(=O)N[C@H](C)CO)cc(-c2nc(-c3ccc(Cl)cc3)cs2)c1=O [Compound 176] has an IC50 (IDH1 R132C; [1]) of 1 to 5 µM and an IC50 (IDH1 R132H; [2]) of 1 to 5 µM.

For CCc1cccc(CC)c1-n1c(CC(C)C)c(C(=O)N2CCN[C@H](C(=O)OC)C2)cc(-c2nc(-c3ccc(Cl)cc3)cs2)c1=O [Compound 2], the IC50 (IDH1 R132C; [1]) was 0.3 to 1 µM and the IC50 (IDH1 R132H; [2]) was 1 to 5 µM.

Molecule CCc1cccc(CC)c1-n1c(C=C(C)C)c(C(=O)N2CCN[C@@H](C)C2)cc(-c2nc(-c3ccc(C(F)(F)F)cc3)cs2)c1=O [Compound 425] has an IC50 (IDH1 R132C; [3]) of under 0.3 µM and an IC50 (IDH1 R132H; [4]) of under 0.3 µM.

Work on CCc1cccc(CC)c1-n1c(C=C(C)C)c(C(=O)N2CCNCC2)cc(-c2ccn(-c3ccc(C4CC4)cc3)n2)c1=O [Compound 606] yielded an IC50 (IDH1 R132C; [3]) of under 0.3 µM and an IC50 (IDH1 R132H; [4]) of under 0.3 µM.

O=C1CCCc2c1cc(-c1nc(-c3ccc(Cl)cc3)cs1)c(=O)n2-c1ccccc1CN1CCOCC1 [Compound 339] was tested, and the IC50 (IDH1 R132C; [1]) was 1 to 5 µM and the IC50 (IDH1 R132H; [2]) was 5 to 20 µM.

COc1ccc(CN2CCN(C)CC2)cc1-n1c2c(cc(-c3nc(-c4ccc(Cl)cc4)cs3)c1=O)C(=O)CCC2 [Compound 527] gave an IC50 (IDH1 R132C; [3]) of over 20 µM and an IC50 (IDH1 R132H; [4]) of over 20 µM.
